According to ChEMBL document CHEMBL3098114, “Combining the tail and the ring approaches for obtaining potent and isoform-selective carbonic anhydrase inhibitors: solution and X-ray crystallographic studies” (Bioorg Med Chem, 2014):

Tests used:
[1] = target: Carbonic anhydrase 9 (Homo sapiens, UniProt Q16790)
[2] = target: Carbonic anhydrase 7 (Homo sapiens, UniProt P43166); assay: Inhibition of human CA7 preincubated for 15 mins by stopped-flow CO2 hydration method
[3] = target: Carbonic anhydrase 3 (Homo sapiens, UniProt P07451)
[4] = target: Carbonic anhydrase 1 (Homo sapiens, UniProt P00915)
[5] = target: Carbonic anhydrase 2 (Homo sapiens, UniProt P00918); assay: Inhibition of human CA2 cytosolic isoform preincubated for 15 mins by stopped-flow CO2 hydration method
[6] = target: Carbonic anhydrase 12 (Homo sapiens, UniProt O43570)
[7] = target: Carbonic anhydrase 13 (Homo sapiens, UniProt Q8N1Q1)
Sequence of Carbonic anhydrase 13 (Q8N1Q1 whole entry): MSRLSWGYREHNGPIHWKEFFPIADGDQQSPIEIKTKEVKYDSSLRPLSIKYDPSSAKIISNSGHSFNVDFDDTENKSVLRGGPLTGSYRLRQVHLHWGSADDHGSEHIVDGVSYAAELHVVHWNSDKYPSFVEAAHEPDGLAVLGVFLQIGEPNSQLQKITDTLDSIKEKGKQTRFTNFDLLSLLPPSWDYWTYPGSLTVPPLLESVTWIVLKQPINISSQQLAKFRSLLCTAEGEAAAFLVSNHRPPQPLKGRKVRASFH

Sequence of Carbonic anhydrase 3 (P07451 whole entry): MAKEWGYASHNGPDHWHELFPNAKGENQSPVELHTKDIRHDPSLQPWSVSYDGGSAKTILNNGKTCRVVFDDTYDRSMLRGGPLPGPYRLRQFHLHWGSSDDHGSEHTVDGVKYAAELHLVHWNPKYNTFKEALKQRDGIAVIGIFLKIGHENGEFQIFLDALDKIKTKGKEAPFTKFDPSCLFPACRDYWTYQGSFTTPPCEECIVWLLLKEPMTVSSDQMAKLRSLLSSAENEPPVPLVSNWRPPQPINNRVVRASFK
Sequence of Carbonic anhydrase 7 (P43166 whole entry): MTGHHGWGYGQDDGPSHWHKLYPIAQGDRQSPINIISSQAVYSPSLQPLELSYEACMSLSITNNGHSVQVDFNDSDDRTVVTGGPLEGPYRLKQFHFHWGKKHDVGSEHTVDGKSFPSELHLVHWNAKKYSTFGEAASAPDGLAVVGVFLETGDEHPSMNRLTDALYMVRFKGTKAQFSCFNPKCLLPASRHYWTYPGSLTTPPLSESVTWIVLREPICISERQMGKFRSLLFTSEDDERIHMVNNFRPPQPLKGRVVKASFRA
Sequence of Carbonic anhydrase 1 (P00915 whole entry, canonical isoform): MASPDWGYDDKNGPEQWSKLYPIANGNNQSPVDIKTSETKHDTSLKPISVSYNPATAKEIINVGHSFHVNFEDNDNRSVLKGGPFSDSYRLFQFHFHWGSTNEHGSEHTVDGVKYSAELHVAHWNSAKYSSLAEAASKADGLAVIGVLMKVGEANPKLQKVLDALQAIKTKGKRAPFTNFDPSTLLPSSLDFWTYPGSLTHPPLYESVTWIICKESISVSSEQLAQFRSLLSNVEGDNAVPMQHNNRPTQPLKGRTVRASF
Sequence of Carbonic anhydrase 12 (O43570 whole entry): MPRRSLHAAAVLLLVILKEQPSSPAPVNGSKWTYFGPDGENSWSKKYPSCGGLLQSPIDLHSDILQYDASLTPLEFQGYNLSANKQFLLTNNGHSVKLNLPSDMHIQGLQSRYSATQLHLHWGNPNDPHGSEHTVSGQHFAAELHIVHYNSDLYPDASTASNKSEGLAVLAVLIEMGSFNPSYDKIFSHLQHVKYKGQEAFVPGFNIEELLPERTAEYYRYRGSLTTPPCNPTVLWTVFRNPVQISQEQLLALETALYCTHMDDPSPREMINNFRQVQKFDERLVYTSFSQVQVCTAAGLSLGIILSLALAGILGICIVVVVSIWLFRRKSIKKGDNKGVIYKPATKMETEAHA

**Q.** `Nc1ccc(S(N)(=O)=O)nc1` was tested. Which Ki [1] did it give?
**A.** The Ki was 279 nM.

**Q.** And the Ki [2]?
**A.** Its Ki is 135 nM.

**Q.** What about the Ki [3] of the same compound?
**A.** The Ki was > 100000 nM.

**Q.** And the Ki [4]?
**A.** Its Ki is 24700 nM.

**Q.** What about the Ki [5] of the same compound?
**A.** The Ki was 253 nM.

**Q.** And the Ki [6]?
**A.** Its Ki is 114 nM.

**Q.** With `Nc1ccc(S(N)(=O)=O)cc1` [SULFANILAMIDE] as the compound, how does the Ki [3] read?
**A.** The Ki was > 100000 nM.

**Q.** And the Ki [7]?
**A.** The Ki was 35 nM.

**Q.** How did the Ki [2] turn out when `Cc1ccc(S(=O)(=O)NC(=O)Nc2ccc(S(N)(=O)=O)nc2)cc1` was run?
**A.** The Ki was 30 nM.

**Q.** What about the Ki [3] of the same compound?
**A.** The Ki was > 100000 nM.

**Q.** `Cc1ccc(S(=O)(=O)NC(=O)Nc2ccc(S(N)(=O)=O)cc2)cc1` was tested. Which Ki [2] did it give?
**A.** Its Ki is 6.4 nM.

**Q.** And the Ki [3]?
**A.** The Ki was > 100000 nM.
